Measured values: ChEMBL document CHEMBL5143683, “Explorations of novel pyridine-pyrimidine hybrid phosphonate derivatives as aurora kinase inhibitors” (Bioorg Med Chem Lett, 2022)
Calls of active or inactive are those of the source. The calls are words filed in the database; no cut-off is given here.

Tests used:
HeLa [1] = test: Anticancer activity against human HeLa cells assessed as reduction in cell viability measured after 24 hrs by MTT assay; type: functional, cell-based
HL-60 = test: Anticancer activity against human HL-60 cells assessed as reduction in cell viability measured after 24 hrs by MTT assay; type: functional, cell-based; settings: HL-60, 24 h
Aurora kinase B = Aurora kinase B (Homo sapiens, UniProt Q96GD4); test: Inhibition of Aurora B (unknown origin) using kemptide acetate as substrate measured after 30 mins by kinase-glo luminescence assay
Chain of Aurora kinase B (Q96GD4 whole entry): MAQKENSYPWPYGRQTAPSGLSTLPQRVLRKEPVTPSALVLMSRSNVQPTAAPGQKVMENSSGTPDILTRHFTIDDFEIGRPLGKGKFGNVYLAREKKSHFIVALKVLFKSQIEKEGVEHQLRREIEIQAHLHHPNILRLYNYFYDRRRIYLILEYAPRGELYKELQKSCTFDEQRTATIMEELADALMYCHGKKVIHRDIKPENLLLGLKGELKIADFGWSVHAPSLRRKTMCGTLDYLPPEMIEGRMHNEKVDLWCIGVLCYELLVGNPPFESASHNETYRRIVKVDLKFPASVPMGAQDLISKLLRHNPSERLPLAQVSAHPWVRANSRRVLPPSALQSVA

A549 = test: Anticancer activity against human A549 cells assessed as reduction in cell viability measured after 24 hrs by MTT assay; type: functional, cell-based; settings: A549, 24 h
[2] = Cytotoxicity against human L02 cells assessed as reduction in cell viability measured after 24 hrs by MTT assay; type: toxicity, cell-based
Aurora kinase A = target: T1, Aurora kinase A (Homo sapiens, UniProt O14965); test: Inhibition of Aurora A (unknown origin) using kemptide acetate as substrate measured after 30 mins by kinase-glo luminescence assay
T1 sequence (O14965 whole entry): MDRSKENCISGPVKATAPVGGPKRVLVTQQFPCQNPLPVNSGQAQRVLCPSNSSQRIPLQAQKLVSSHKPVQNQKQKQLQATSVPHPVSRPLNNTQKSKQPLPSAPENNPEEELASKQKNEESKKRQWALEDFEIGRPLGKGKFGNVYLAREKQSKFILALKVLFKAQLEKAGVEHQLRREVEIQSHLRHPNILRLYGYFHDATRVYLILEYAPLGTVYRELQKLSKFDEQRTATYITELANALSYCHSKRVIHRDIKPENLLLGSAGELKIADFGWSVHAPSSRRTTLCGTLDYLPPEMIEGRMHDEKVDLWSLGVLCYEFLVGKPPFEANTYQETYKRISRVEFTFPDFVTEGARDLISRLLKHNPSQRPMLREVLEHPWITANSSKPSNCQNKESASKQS

[3] = Selectivity index, ratio of IC50 for human L02 cells to IC50 for human Hep-G2 cells; type: toxicity; settings: L02 cells and Hep-G2 cells, read-out: Ratio IC50
HepG2 [4] = test: Anticancer activity against human HepG2 cells assessed as reduction in cell viability measured after 24 hrs by MTT assay; type: functional, cell-based; settings: HepG2, 24 h
MCF7 = test: Anticancer activity against human MCF7 cells assessed as reduction in cell viability measured after 24 hrs by MTT assay; type: functional, cell-based; settings: MCF7, 24 h
HeLa [5] = test: Induction of morphological changes in human HeLa cells assessed as cell shrinkage at IC50 by inverted microscopy; type: functional, cell-based
HeLa [6] = test: Induction of morphological changes in human HeLa cells assessed as reduction in number of viable cells at IC50 by inverted microscopy; type: functional, cell-based
HepG2 [7] = test: Induction of morphological changes in human HepG2 cells assessed as reduction in number of viable cells at IC50 by inverted microscopy; type: functional, cell-based
HepG2 [8] = test: Induction of morphological changes in human HepG2 cells assessed as cell detachment at IC50 by inverted microscopy; type: functional, cell-based
HeLa [9] = test: Induction of morphological changes in human HeLa cells assessed as […] at IC50 by inverted microscopy; type: functional, cell-based
HeLa [10] = test: Induction of morphological changes in human HeLa cells assessed as cell detachment at IC50 by inverted microscopy; type: functional, cell-based
HepG2 [11] = test: Induction of morphological changes in human HepG2 cells assessed as […] at IC50 by inverted microscopy; type: functional, cell-based
HepG2 [12] = test: Induction of morphological changes in human HepG2 cells assessed as cell shrinkage at IC50 by inverted microscopy; type: functional, cell-based

| IC50 (HeLa [1]) | IC50 (HL-60) | IC50 (Aurora kinase B) | IC50 (A549) | IC50 (Aurora kinase A) | IC50 (HepG2 [4]) | IC50 (MCF7) | Compound | IC50 at 24 h [2] | selectivity ratio [3] | Activity (HeLa [5]) | Activity (HeLa [6]) | Activity (HepG2 [7]) | Activity (HepG2 [8]) | Activity (HeLa [9]) | Activity (HeLa [10]) | Activity (HepG2 [11]) | Activity (HepG2 [12]) |
| --- | --- | --- | --- | --- | --- | --- | --- | --- | --- | --- | --- | --- | --- | --- | --- | --- | --- |
| 6.02 µM | 2.32 µM | 0.015 µM | 13.8 µM | 0.033 µM | 18 µM | 1.55 µM | CCOP(=O)(OCC)C(Nc1ccc(C)c(Nc2nccc(-c3cccnc3)n2)c1)c1scnc1C (stereo not given) | 74.9 µM | 5.5 |  |  |  |  |  |  |  |  |
| 6.24 µM | 1.88 µM |  | 15.1 µM |  | 18 µM | 1.02 µM | Cc1cc(Nc2cc(N3CCN(C)CC3)nc(Sc3ccc(NC(=O)C4CC4)cc3)n2)n[nH]1 [TOZASERTIB] |  |  |  |  |  |  |  |  |  |  |
| 32.1 µM | 9.02 µM |  | 40.2 µM |  | 42.1 µM | 8.88 µM | CCOP(=O)(OCC)C(Nc1ccc(C)c(Nc2nccc(-c3cccnc3)n2)c1)c1ccccc1 (stereo not given) |  |  |  |  |  |  |  |  |  |  |
| 10.2 µM | 6.39 µM |  | 21.4 µM |  | 21.5 µM | 5.32 µM | CCOP(=O)(OCC)C(Nc1ccc(C)c(Nc2nccc(-c3cccnc3)n2)c1)c1ccc(N)cc1 (stereo not given) |  |  |  |  |  |  |  |  |  |  |
| 18.1 µM | 7.22 µM |  | 28.1 µM |  | 28.5 µM | 6.38 µM | CCOP(=O)(OCC)C(Nc1ccc(C)c(Nc2nccc(-c3cccnc3)n2)c1)c1ccncc1 (stereo not given) |  |  |  |  |  |  |  |  |  |  |
| 12.3 µM | 7.23 µM |  | 24.1 µM |  | 24.9 µM | 6.11 µM | CCOP(=O)(OCC)C(Nc1ccc(C)c(Nc2nccc(-c3cccnc3)n2)c1)c1ccc(F)cc1 (stereo not given) |  |  |  |  |  |  |  |  |  |  |
| 12 µM | 7.19 µM |  | 24 µM |  | 24.8 µM | 6.09 µM | CCOP(=O)(OCC)C(Nc1ccc(C)c(Nc2nccc(-c3cccnc3)n2)c1)c1ccc(Cl)cc1 (stereo not given) |  |  |  |  |  |  |  |  |  |  |
| 10.4 µM | 5.98 µM |  | 21.6 µM |  | 21.6 µM | 5.67 µM | CCOP(=O)(OCC)C(Nc1ccc(C)c(Nc2nccc(-c3cccnc3)n2)c1)c1ccc(O)cc1 (stereo not given) |  |  |  |  |  |  |  |  |  |  |
| 8.94 µM | 4.92 µM |  | 18.2 µM |  | 19.9 µM | 4.66 µM | CCOP(=O)(OCC)C(Nc1ccc(C)c(Nc2nccc(-c3cccnc3)n2)c1)c1c[nH]c2ccccc12 (stereo not given) |  |  |  |  |  |  |  |  |  |  |
| 13 µM | 7.87 µM |  | 24.3 µM |  | 24.9 µM | 6.42 µM | CCOP(=O)(OCC)C(Nc1ccc(C)c(Nc2nccc(-c3cccnc3)n2)c1)c1ccc(OC)cc1 (stereo not given) |  |  |  |  |  |  |  |  |  |  |
| 10.6 µM | 6.75 µM |  | 22 µM |  | 21.9 µM | 5.96 µM | CCOP(=O)(OCC)C(Nc1ccc(C)c(Nc2nccc(-c3cccnc3)n2)c1)c1ccc(C)cc1 (stereo not given) |  |  |  |  |  |  |  |  |  |  |
| 21.1 µM | 8.18 µM |  | 32.6 µM |  | 34 µM | 6.86 µM | CCOP(=O)(OCC)C(Nc1ccc(C)c(Nc2nccc(-c3cccnc3)n2)c1)N1CCCCC1 (stereo not given) |  |  |  |  |  |  |  |  |  |  |
| 12.9 µM | 8.24 µM |  | 25 µM |  | 25 µM | 7.07 µM | CCOP(=O)(OCC)C(Nc1ccc(C)c(Nc2nccc(-c3cccnc3)n2)c1)c1ccc(Cl)c(Cl)c1 (stereo not given) |  |  |  |  |  |  |  |  |  |  |
| 6.88 µM | 3.01 µM | 0.012 µM | 15.1 µM | 0.015 µM | 18.6 µM | 2.36 µM | CCOP(=O)(OCC)C(Nc1ccc(C)c(Nc2nccc(-c3cccnc3)n2)c1)c1ccn[nH]1 (stereo not given) | 83.2 µM | 5.5 |  |  |  |  |  |  |  |  |
| 7.16 µM | 3.78 µM |  | 15.8 µM |  | 18.9 µM | 3.36 µM | CCOP(=O)(OCC)C(Nc1ccc(C)c(Nc2nccc(-c3cccnc3)n2)c1)c1ccco1 (stereo not given) |  |  |  |  |  |  |  |  |  |  |
| 5.81 µM | 2.11 µM | 0.022 µM | 13.6 µM | 0.042 µM | 17.5 µM | 1.59 µM | CCOP(=O)(OCC)C(Nc1ccc(C)c(Nc2nccc(-c3cccnc3)n2)c1)c1ccc[nH]1 (stereo not given) | 95.3 µM | 7 | Active | Active | Active | Active | Active | Active | Active | Active |
| 7.01 µM | 2.99 µM |  | 15.7 µM |  | 18.8 µM | 2.46 µM | CCOP(=O)(OCC)C(Nc1ccc(C)c(Nc2nccc(-c3cccnc3)n2)c1)c1ccsc1 (stereo not given) |  |  |  |  |  |  |  |  |  |  |
| 20.3 µM | 7.65 µM |  | 29.2 µM |  | 30.5 µM | 6.82 µM | CCOP(=O)(OCC)C(Nc1ccc(C)c(Nc2nccc(-c3cccnc3)n2)c1)N1CCOCC1 (stereo not given) |  |  |  |  |  |  |  |  |  |  |
